# Columns and labels:
# [1] = tested on: central nervous system; assay: climbing test on albino mice, sedative action on the central nervous system; assay type: in vivo; details: Mus musculus, po, read-out: Sedative action % (percentage of animals which no longer take up the climbing work); for responders at 8 mg/kg: dose 8 mg/kg p.o.; for responders at 10 mg/kg: dose 10 mg/kg p.o.
# Protocol: The pharmacological investigation of the sedative action on the central nervous system was carried out using the climbing tests on albino mice described by P. K. KNEIP: Arch. int. pharmacodyn 126, 238 (1960) and R. DOMENJOZ and W. THEOBALD: Arch. int. pharmacodyn 120, 450 (1959).
# In the table which follows, the results of the pharmacological investigations carried out are summarised. In the last table under the heading "Sedative action %" there is given the percentage of the experimental animals which no longer take up the normally readily assumed climbing work.
# [2] = LD50 (mouse), acute toxicity; details: in vivo
SMILES,responders at 8 mg/kg [1],LD50 ([2]; ip),other results
"CC(CC#N)NCC(=O)N(C)c1ccccc1C(=O)c1ccccc1 (stereo not shown) [2-(5-Cyano-N,4-dimethyl-3-aza-pentanamido)-benzophenone]",70%,320 mg/kg,
Cc1ccc(N(C)C(=O)CNC(C)CC#N)c(C(=O)c2ccccc2)c1 (stereo not shown),70%,300 mg/kg,
CCOC(=O)CCNCC(=O)N(C)c1ccc(SC)cc1C(=O)c1ccccc1 [2-(5-ethoxycarbonyl-N-methyl-3-aza-pentanamido)-5-methylmerkapto-benzophenone],60%,,
"CC(CC#N)N(C)CC(=O)N(C)c1ccc(Cl)cc1C(=O)c1ccccc1 (stereo not shown) [2-(5-Cyano-N,3,4-trimethyl-3-aza-pentanamido)-5-chlor-benzophenone]",,320 mg/kg,responders at 9 mg/kg ([1]; dose 9 mg/kg p.o.): 50%
Cc1ccc(N(C)C(=O)CNCCC#N)c(C(=O)c2ccccc2)c1 [2-(5-Cyano-N-methyl-3-aza-pentanamido)-5-methyl-benzophenone],50%,,
COC(=O)CNCC(=O)N(C)c1ccc(Cl)cc1C(=O)c1ccccc1 [2-(4-Methoxycarbonyl-N-methyl-3-aza-butanamido)-5-chlor-benzophenone],,,responders at 10 mg/kg [1]: 50%; LD50 ([2]; po): 950 mg/kg
CCCCN(CCC#N)CC(=O)N(C)c1ccc(Cl)cc1C(=O)c1ccccc1 [2-(5-Cyano-N-methyl-3-n-butyl-3-aza-pentanamido)-5-chlor-benzophenone],80%,360 mg/kg,
"CN(CCC#N)CC(=O)N(C)c1ccc(Cl)cc1C(=O)c1ccccc1 [2-(5-Cyano-N,3-dimethyl-3-aza-pentanamido)-5-chlor-benzophenone]",50%,240 mg/kg,
CCOC(=O)CCCNCC(=O)N(C)c1ccc([N+](=O)[O-])cc1C(=O)c1ccccc1 [2-(6-ethoxycarbonyl-N-methyl-3-aza-hexanamido)-5-nitro-benzophenone],60%,650 mg/kg,
"CCOC(=O)CCNCC(=O)Nc1ccc(Cl)cc1C(=O)c1ccccc1Cl [2-(5-ethoxycarbonyl-3-aza-pentanamido)-2',5-dichlor-benzophenone]",70%,,
C=CCN(CCC#N)CC(=O)Nc1ccc(Cl)cc1C(=O)c1ccccc1Cl [2-(5-Cyano-3-allyl-3-aza-pentanamido)-2'-5-dichlor-benzophenone],60%,630 mg/kg,
CN(CCC(=O)O)CC(=O)Nc1ccc(Cl)cc1C(=O)c1ccccc1 [2-(5-Carboxy-3-methyl-3-aza-pentanamido)-5-chlor-benzophenone],90%,450 mg/kg,
CCOC(=O)CCNCC(=O)N(C)c1ccc(C(F)(F)F)cc1C(=O)c1ccccc1 [2-(5-ethoxycarbonyl-N-methyl-3-aza-pentanamido)-5-trifluormethyl-benzophenone],60%,400 mg/kg,
CCOC(=O)CCCNCC(=O)Nc1ccc([N+](=O)[O-])cc1C(=O)c1ccccc1 [2-(6-ethoxycarbonyl-3-aza-hexanamido)-5-nitro-benzophenone],50%,,
"CCCC(C)(COC(N)=O)COC(N)=O [Meprobamate, reference compound]",,620 mg/kg,"responders at 70 mg/kg ([1]; dose 70 mg/kg p.o., comparative preparation): 50%"
"CC(C#N)CN(C)CC(=O)N(C)c1ccc([N+](=O)[O-])cc1C(=O)c1ccccc1 (stereo not shown) [2-(5-Cyano-N,3-dimethyl-3-aza-hexanamido)-5-nitro-benzophenone]",,480 mg/kg,responders at 10 mg/kg [1]: 60%; LD50 ([2]; po): 1100 mg/kg
CCCCN(CCC#N)CC(=O)N(C)c1ccc([N+](=O)[O-])cc1C(=O)c1ccccc1 [2-(5-Cyano-N-methyl-3-n-butyl-3-aza-pentanamido)-5-nitro-benzophenone],50%,680 mg/kg,
"CC(CC#N)NCC(=O)N(C)c1ccc(Cl)cc1C(=O)c1ccccc1 (stereo not shown) [2-(5-Cyano-N,4-dimethyl-3-aza-pentanamido)-5-chlor-benzophenone]",50%,315 mg/kg,
CC(CC#N)NCC(=O)Nc1ccccc1C(=O)c1ccccc1 (stereo not shown) [2-(5-Cyano-4-methyl-3-aza-pentanamido)-benzophenone],,,responders at 10 mg/kg [1]: 50%; LD50 ([2]; po): > 1000 mg/kg
"CN(CCC#N)CC(=O)N(C)c1ccc([N+](=O)[O-])cc1C(=O)c1ccccc1 [2-(5-Cyano-N,3-dimethyl-3-aza-pentanamido)-5-nitro-benzophenone]",,,responders at 10 mg/kg [1]: 50%; LD50 ([2]; po): > 1000 mg/kg
CCOC(=O)CCNCC(=O)N(C)c1ccc(C)cc1C(=O)c1ccccc1 [2-(5-ethoxycarbonyl-N-methyl-3-aza-pentanamido)-5-methyl-benzophenone],50%,,
CC(C#N)CNCC(=O)Nc1ccc(Cl)cc1C(=O)c1ccccc1 (stereo not shown) [2-(5-Cyano-3-aza-hexanamid0)-5-chlor-benzophenone],50%,600 mg/kg,
COc1ccc(N(C)C(=O)CNCCC#N)c(C(=O)c2ccccc2)c1 [2-(5-Cyano-N-methyl-3-aza-pentanamido)-5-methoxy-benzophenone],50%,,
CN(C(=O)CNCC#N)c1ccc(Cl)cc1C(=O)c1ccccc1 [2-(4-Cyano-N-methyl-3-aza-butanamido)-5-chlor-benzophenone],60%,170 mg/kg,
"COc1ccc(N(C)C(=O)CNC(C)CC#N)c(C(=O)c2ccccc2)c1 (stereo not shown) [2-(5-Cyano-N,4-dimethyl-3-aza-pentanamido)-5-methoxy-benzophenone]",60%,250 mg/kg,
CN(CCCC#N)CC(=O)Nc1ccc(Cl)cc1C(=O)c1ccccc1 [2-(6-Cyano-3-methyl-3-aza-hexanamido)-5-chlor-benzophenone],60%,,

# From patent publication US3931314A, “Benzophenone derivatives and process for their production” (Cassella Farbwerke Mainkur Aktiengesellschaft, priority 1972, dated 1976)
